Source: PMC7051184, “C9orf72 arginine-rich dipeptide repeat proteins disrupt karyopherin-mediated nuclear import” (eLife, 2020)
Where a SMILES comes first, the peptide text is derived from it.

Legend:
[1] = system: Nsp1(497-609); assay: Bead halo assay, GST-Nsp1(497-609) FxFG domain; format: binding, S. cerevisiae; settings: AF488-labeled
Procedure: The expression of GST- Nsp1(497-609) in BL21(DE3) cells grown in LB media was induced at OD600nm = 0.4–0.6, followed by incubation at 37°C for 3–5 hr. The GST-tagged S. cerevisiae pGEX-Nup100(1-307), Nup100(1-610), Nup116(348-458) and Nup116(348-458)F > A were expressed in T7 Shuffle cells (NEB) that were grown in Dynamite media ([Taylor et al., 2017]) until OD600nm = 0.9 before induction with IPTG at 37°C for 3 hr. All the GST-tagged Nup fragments were purified using glutathione-sepharose affinity chromatography, as described for the GST-GFP-NLS above, and dialyzed into PBS before storage.
(§1) The bead halo assay was carried out as described with minor modifications ([Patel and Rexach, 2008]), using […] polystyrene beads coated with neutravidin (for biotinylated proteins) or glutathione (for GST-fusion proteins) (Spherotech, Lake Forest, IL). Beads were coated overnight at 4°C at saturating concentrations per manufacturers’ instructions and rinsed 2x in binding buffer (20 mM HEPES [pH 7.4], 150 mM KOAc, 2 mM Mg(OAc)2, 1 mM DTT, 0.1% Tween-20). Immediately prior to the assay, fluorescent bait proteins and beads were combined with 4x assay buffer (40 mM EDTA, 40 mg/ml BSA, 500 mM NaCl, and 0.2% Tween) to a total of 40 µL per well, in optical glass-bottom 96-well plates (Cellvis, Mountain View, CA). […]

[2] = system: Nup54; assay: DPR aggregation assay and western blot, Nup54; format: biochemical, human; settings: 100 µM 10mer in 2.5 mg/ml HEK lysate; Blot 1; normalized to untreated HEK
Procedure: Supernatant and pellet fractions (for all 5 DPRs, and control/buffer only) were prepared as in the nuclear transport assays, by adding 100 µM 10mers to 2.5 mg/ml HEK lysate in 100 µL TRB. Supernatants were boiled in Laemmli (BioRad) for 5 min. Pellets were boiled for 15 min followed by sonication in order to fully disperse aggregates for SDS-PAGE. Equal volumes of supernatant and pellet fractions were run on 4–12% Bolt Bis-Tris Plus gels (ThermoFisher), transferred to nitrocellulose membrane using an iBlot2 dry blotting system (ThermoFisher). Protein loading was analyzed by BLOT-Faststain (G-biosciences, St. Louis, MO), according to the manufacterers’ instructions. For immunodetection, membranes were blocked with 5% non-fat milk in TBST and probed by sequential incubation with the primary antibodies as detailed in the table below. Detection was by HRP-conjugated secondary antibodies/chemiluminescence using an ImageQuant LAS 4000 system (GE, Chicago, IL). To permit sequential probing of membranes without stripping, signals were quenched by incubation with prewarmed 30% H20_2 for 20 min ([Sennepin et al., 2009]). Band intensities were measured by ImageQuant software. For pellet vs. supernatant fractions, all were expressed as percent untreated control. […]

[3] = system: importin β; assay: Bead halo assay, biotinylated importin β on neutravidin beads; format: binding, human; settings: AF488-labeled; 1 mg/ml neuronal lysate added
Procedure: To prepare biotinylated WT importin β-Avitag (pKW1982, pK1099), BL21DE3 cells (New England Biolabs, Ipswich, MA) were co-transfected with the respective plasmids together with pAC-biotin ligase (Avidity), followed by plating and growth in LB media containing ampicillin and chloramphenicol. After the 37°C cultures reached OD600nm + 0.4–0.6, the cultures were cooled to room temperature, supplemented with 100 µM D-biotin, and the expression was induced with 0.3 mM IPTG at room temperature for 8–11 hr (pKW762). Proteins were purified on Ni-NTA resin as described for the non-biotinylated importin β fragments.
as §1

## N=C(N)NCCC[C@H](NC(=O)[C@@H]1CCCN1C(=O)[C@H](CCCNC(=N)N)NC(=O)[C@@H]1CCCN1C(=O)[C@H](CCCNC(=N)N)NC(=O)[C@@H]1CCCN1C(=O)[C@H](CCCNC(=N)N)NC(=O)[C@@H]1CCCN1C(=O)[C@H](CCCNC(=N)N)NC(=O)[C@@H]1CCCN1C(=O)[C@H](CCCNC(=N)N)NC(=O)[C@@H]1CCCN1C(=O)[C@H](CCCNC(=N)N)NC(=O)[C@@H]1CCCN1C(=O)[C@H](CCCNC(=N)N)NC(=O)[C@@H]1CCCN1C(=O)[C@H](CCCNC(=N)N)NC(=O)[C@@H]1CCCN1C(=O)[C@H](CCCNC(=N)N)NC(=O)[C@@H]1CCCN1)C(=O)O [PR10] (H-PRPRPRPRPRPRPRPRPRPR-OH; N-terminus and C-terminus assumed)
[1]
  FG-binding with added unlabeled importin β: FG-binding could be augmented
[2]
  Nup54 band density, Pellet: 143.4 % control
  Nup54 band density, Supernatant: 96.8 % control
[3]
  Binding to importin β-coated beads: the intensity of the importin β halo persisted
